Bridge positions count the residues as written; N and C are the ends. Square brackets hold non-standard residues; d marks the D form. Peptide text beside a SMILES is read from it. * marks the point of attachment. X4 = CN(C)C(=N[C@@H](CCCNC(=N)N)C(=O)*)N(C)C; 2Nal = N[C@@H](Cc1ccc2ccccc2c1)C(=O)O; Cit = NC(=O)NCCC[C@H](N)C(=O)O; X5 = O=C(c1ccccc1F)*
What was measured:
CXCR4 receptor = biological target: T1, CXCR4 receptor (Homo sapiens, UniProt P61073); experiment: Inhibition of 125I-CXCL12 binding to CXCR4 receptor on Jurkat cells; details: Table 1, 125I-CXCL12, 1 hour at room temperature, compounds as acetate salt, read-out: IC50 (nM), inhibitory activity against CXCL12 binding to CXCR4 receptor
T1 construct: 50 μL of Jurkat human T-cell leukemia cells (6×10^6 cells/mL) suspended in buffer; endogenous in cells; host or cells: Jurkat human T-cell leukemia cells
T1 sequence (P61073 whole entry): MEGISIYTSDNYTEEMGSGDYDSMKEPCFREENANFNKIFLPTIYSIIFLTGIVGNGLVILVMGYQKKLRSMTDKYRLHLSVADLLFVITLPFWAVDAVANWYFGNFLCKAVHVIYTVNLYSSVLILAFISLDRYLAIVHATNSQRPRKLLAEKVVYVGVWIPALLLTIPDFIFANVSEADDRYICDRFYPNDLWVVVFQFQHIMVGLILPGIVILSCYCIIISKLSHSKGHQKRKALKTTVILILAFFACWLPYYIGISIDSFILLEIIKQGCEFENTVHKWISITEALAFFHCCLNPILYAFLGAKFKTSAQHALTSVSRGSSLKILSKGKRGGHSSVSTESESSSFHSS
Protocol: After reaction, suction was made toward the reaction solution by 96 well GF/C filter plate, and each well's radioactivity was measured by top count. As the radioactivity index of 100% when the test compound was not added, and 0% when 100 nM of non-radioisotope-labeled CXCL12 was added, the inhibitory activity of each test compound was measured.

[1] = tested on: human breast cancer MDA-MB-231 cells; experiment: Inhibition of CXCL12-induced breast cancer cell migration (Transwell); type: cell-based; details: 10 nM of the antagonist; 100 nM CXCL12; 15 hours
Protocol: Transwell filter (polycarbonate filter, 8 μm diameter, Costar Company) was treated at 37° C. for 6 hours in 10 μg/mL fibronectin solution and air-dried. 100 nM of CXCL12 (R&D System Company) and 600 μL/well of buffer-A (0.1% bovine serum albumin, DMEM (GibcoBRL) containing 12 mM HEPES) containing the test compound were added to the lower chamber of the Transwell. The test compound and human breast cancer MDA-MB-231 cells (purchased from American Tissue Culture Collection), and 100 μL/well of buffer A containing 2×10^6 cells/mL were added to the upper chamber. […] Cutting off the filter part, adding 0.1 M sodium citrate/50% ethanol solution, and eluting crystal violet absorption at 550 nm was measured. […]
After 15 hours' incubation at 37° C. in 5% CO2 incubator, the upper surface of the filter was wiped and the cell was removed, and then the cell on the lower surface of the filter was fixed and stained with 25% methanol solution containing 0.5% crystal violet (Wako Pure Chemical Ind.), washed by distilled water and air-dried. Cutting off the filter part, adding 0.1 M sodium citrate/50% ethanol solution, and eluting crystal violet absorption at 550 nm was measured. […]

[2] = tested on: mouse collagen-induced arthritis; experiment: Mouse collagen-induced arthritis; type: in vivo, DBA/1JN mouse; details: known drugs p.o. daily for 2 weeks: Indomethacin 1 mg/kg, methotrexate 3 mg/kg, FK-506 10 mg/kg
Protocol: FK-506 was purified by a known method (Kino T. et al., J. Antibiot., 1987 40(9): 1249-55). […] For 2 weeks after the additional immunization, body weights and hindlimb thickness were measured and arthritis scoring was made. Arthritis scores were scored at 0-3 points of each limb, and evaluated by the total of the same (12 points being the full points; 0, normal; 1, mild swelling or swelling of a single digit; 2, moderate swelling or swelling of plural digits; 3, severe swelling). Two weeks after the immunization, four limbs and sera were picked. After coat blocking bovine type II collagen (10 μg/mL PBS solution) on the immunoplate, 100 μL of 1000 times diluted mouse serum was added, and kept at room temperature for 2 hours. After cleansing, anti-mouse IgG2a antibody (1000 times dilution) was added. After cleansing, TMB was added, kept at room temperature for 30 minutes, H2SO4 of equal amount was added, and A450 nm was measured. Indomethacin (1 mg/kg), methotrexate (3 mg/kg) and FK-506 (10 mg/kg) were suspended to 0.5% methyl cellulose, and orally administered every day for 2 weeks from the day of the additional immunization at the dose of 0.1 mL/10 g body weight. 0.5% methyl cellulose solution of the equal dose was orally administered to the control group. 4Fbenzoyl-TN14003 was dissolved to PBS, and continuously administered using Alzet osmotic pumps (Alza, 0.5 μL/hr 2 weeks). The osmotic pumps were implanted intradermally to the backs of the mice under ether anesthesia on the day before the additional immunization. As the control, pumps injected with PBS were similarly implanted. Evaluation of each drug was made for the value obtained 2 weeks after the additional immunization. Data were expressed as mean value±standard margin of error (n=8-12). Comparison between 2 groups was made by Student's t-test, p≦0.05 was valued as significant. Multiple comparison was made by Dunnett test, p≦0.05 was valued as significant.

N=C(N)NCCC[C@H](NC(=O)[C@@H]1CSSC[C@H](NC(=O)[C@H](Cc2ccc3ccccc3c2)NC(=O)[C@H](CCCNC(=N)N)NC(=O)[C@@H](N)CCCNC(=N)N)C(=O)N[C@@H](Cc2ccc(O)cc2)C(=O)N[C@@H](CCCNC(=N)N)C(=O)N[C@@H](CCCCN)C(=O)N[C@H](CCC(=O)O)C(=O)N2CCC[C@H]2C(=O)N[C@@H](Cc2ccc(O)cc2)C(=O)N[C@@H](CCCNC(=N)N)C(=O)N[C@@H](CCCNC(N)=O)C(=O)N1)C(=O)O [TE14005, H-Arg-Arg-Nal-Cys-Tyr-Arg-Lys-DGlu-Pro-Tyr-Arg-Cit-Cys-Arg-OH] (H-RR[2Nal]CYRK[dE]PYR[Cit]CR-OH; disulfide 4-13)
IC50 (CXCR4 receptor): 2.2 nM
CXCL12-induced migration of MDA-MB-231 cells [1]: inhibited

COc1ccc2c(c1)c(CC(=O)O)c(C)n2C(=O)c1ccc(Cl)cc1 [Indomethacin, reference compound]
arthritis score [2]: significant or evident inhibitory activity
hindlimb swelling [2]: significantly inhibited

CN(Cc1cnc2nc(N)nc(N)c2n1)c1ccc(C(=O)N[C@@H](CCC(=O)O)C(=O)O)cc1 [methotrexate, reference compound]
arthritis score [2]: significant or evident inhibitory activity
hindlimb swelling [2]: significantly inhibited

CN(C)C(=N[C@@H](CCCNC(=N)N)C(=O)N[C@@H](CCCNC(=N)N)C(=O)N[C@@H](Cc1ccc2ccccc2c1)C(=O)N[C@H]1CSSC[C@@H](C(=O)N[C@@H](CCCNC(=N)N)C(N)=O)NC(=O)[C@H](CCCNC(N)=O)NC(=O)[C@H](CCCNC(=N)N)NC(=O)[C@H](Cc2ccc(O)cc2)NC(=O)[C@@H]2CCCN2C(=O)[C@@H](CCC(=O)O)NC(=O)[C@H](CCCCN)NC(=O)[C@H](CCCNC(N)=O)NC(=O)[C@H](Cc2ccc(O)cc2)NC1=O)N(C)C [TF3, TMguanyl-Arg-Arg-Nal-Cys-Tyr-Cit-Lys-DGlu-Pro-Tyr-Arg-Cit-Cys-Arg-NH2] (X4-R[2Nal]CY[Cit]K[dE]PYR[Cit]CR-NH2; disulfide 3-12)
IC50 (CXCR4 receptor): 9.6 nM

N=C(N)NCCC[C@H](NC(=O)[C@@H]1CSSC[C@H](NC(=O)[C@H](Cc2ccc3ccccc3c2)NC(=O)[C@H](CCCNC(=N)N)NC(=O)[C@H](CCCNC(=N)N)NC(=O)c2ccccc2F)C(=O)N[C@@H](Cc2ccc(O)cc2)C(=O)N[C@@H](CCCNC(N)=O)C(=O)N[C@@H](CCCCN)C(=O)N[C@H](CCC(=O)O)C(=O)N2CCC[C@H]2C(=O)N[C@@H](Cc2ccc(O)cc2)C(=O)N[C@@H](CCCNC(=N)N)C(=O)N[C@@H](CCCNC(N)=O)C(=O)N1)C(N)=O [TF6, 2F-benzoyl-Arg-Arg-Nal-Cys-Tyr-Cit-Lys-DGlu-Pro-Tyr-Arg-Cit-Cys-Arg-NH2] (X5-RR[2Nal]CY[Cit]K[dE]PYR[Cit]CR-NH2; disulfide 4-13)
IC50 (CXCR4 receptor): 3.9 nM

N=C(N)NCCC[C@H](NC(=O)[C@@H]1CSSC[C@H](NC(=O)[C@H](Cc2ccc3ccccc3c2)NC(=O)[C@H](CCC(=O)O)NC(=O)[C@@H](N)CCCNC(=N)N)C(=O)N[C@@H](Cc2ccc(O)cc2)C(=O)N[C@@H](CCCNC(=N)N)C(=O)N[C@@H](CCCCN)C(=O)N[C@H](CCCCN)C(=O)N2CCC[C@H]2C(=O)N[C@@H](Cc2ccc(O)cc2)C(=O)N[C@@H](CCCNC(=N)N)C(=O)N[C@@H](CCCNC(N)=O)C(=O)N1)C(=O)O [TE14002, H-Arg-Glu-Nal-Cys-Tyr-Arg-Lys-DLys-Pro-Tyr-Arg-Cit-Cys-Arg-OH] (H-RE[2Nal]CYRK[dK]PYR[Cit]CR-OH; disulfide 4-13)
IC50 (CXCR4 receptor): 680 nM

Reference: US8017585B2, “CXCR4 antagonist and use thereof” (priority 2002, dated 2011)
